The values below come from patent US20240366539A1, “METHODS FOR TREATING AUTISM SPECTRUM DISORDERS” (INSTITUT NATIONAL DE LA SANTÉ ET DE LA RECHERCHE MÉDICALE, priority 2021, published 2024).

Common to all, as to assay type: in vivo, mouse
For assay [1], the system named is Oprm1^−/− mice. In words: Y-maze exploration. The note with it: chronic NaBr 10-500 mg/kg or bumetanide 0.5 and 2 mg/kg. The protocol: (§1) Mice were treated with vehicle (NaCl 0.9%; ip, 10 or 20 ml/kg), NaBr (Sigma-Aldrich, Saint-Quentin Fallavier, France) administered either chronically (once a day, 10, 30, 70, 125, 250 and 500 mg/kg; i.p. or per os, in a volume of 20 ml/kg—except for combination with VU0155041: […]) or acutely (250 mg/kg, 20 ml/kg), KBr (Sigma-Aldrich, Saint-Quentin Fallavier, France; 145 mg/kg; i.p., 20 ml/kg), bumetanide (R&D systems, Minneapolis, USA, 0.5 and 2 mg/kg; i.p., 20 ml/kg) or VU0155041 (Cayman Chemicals, Ann Arbor, USA, once a day, i.p., 1 mg/kg, 10 ml/kg). […] When treatment was given chronically, behavioral testing started 8 days after beginning of daily administration. Treatment was maintained for 8 to 18 consecutive days (see timelines in FIGS. 1 and 4), allowing thorough behavioral phenotyping. On testing days, or when treatment was given acutely, drugs (or vehicle) were administered 30 min before behavioral assays.
Y-maze exploration. Spontaneous alternation behavior was used to assess perseverative behavior (65-67). Each Y-maze consisted of three connected Plexiglas arms (15×15×17 cm) covered with distinct wall patterns (15 lx). Floors were covered with lightly sprayed fresh sawdust to limit anxiety. Each mouse was placed at the center of a maze and allowed to freely explore this environment for 5 min. The pattern of entries into each arm was quoted on video-recordings. Spontaneous alternations (SPA), i.e. successive entries into each arm forming overlapping triplet sets, alternate arm returns (AAR) and same arm returns (SAR) were scored, and the percentage of SPA, AAR and SAR was calculated as following: total/(total arm entries−2)*100.

The test system of assay [2] is Oprm1^−/− mice. In words: Tail-immersion test. As to conditions: 50° C., NaBr 70 mg/kg, VU0155041 1 mg/kg, alone or combined, chronic. How it is done:
as §1
Tail-immersion test. Nociceptive thresholds were assessed by immersing the tail of the mice (5 cm from the tip) successively into water baths at 48° C., 50° C. and 52° C. The latency to withdraw the tail was measured at each temperature, with a cutoff of 10 s.

Another assay relates to Fmr1^−/− mice. The experiment in a line: Marble-burying. The note with it: Fmr1+/+ and Fmr1−/− mice; chronic NaBr 250 mg/kg once daily. The protocol:
as §1
(§2) Marble-burying. Marble burying was used as a measure of perseverative behavior (68). Mice were introduced individually in transparent cages (21×11×17 cm) containing 20 glass marbles (diameter: 1.5 cm) evenly spaced on 4-cm deep fresh sawdust. To prevent escapes, each cage was covered with a filtering lid. Light intensity in the room was set at 40 lux. The animals were removed from the cages after 15 min, and the number of marbles buried more than half in sawdust was quoted.
(§3) To this purpose, we evaluated the effects of chronic NaBr administration at the dose of 250 mg/kg on autism-sensitive behaviors in these lines (FIG. 3A).

The subject of a further assay is Shank3^Δex13-16−/− mice. In words: Marble-burying. The note with it: Shank3Δex13-16−/− and WT mice, chronic NaBr 250 mg/kg once daily. The protocol:
as §1, §2, §3

The test system of assay [3] is gene expression in Oprm1 null mice (NAc, CPu, VP/Tu, MeA, VTA/SNc). The experiment in a line: Real-time quantitative PCR of brain reward/social circuit regions. How it is done:
Brains were removed and placed into a brain matrix (ASI Instruments, Warren, MI, USA). Nucleus accumbens (NAc), caudate putamen (CPu), ventral pallidum/olfactory tubercle (VP/Tu), medial nucleus of the amygdala (MeA) and ventral tegmental area/substancia nigra pars compacta (VTA/SNc) were punched out/dissected from 1 mm-thick slices (data not shown). Tissues were immediately frozen on dry ice and kept at −80° C. until use. For each structure of interest, genotype and condition, samples were processed individually (n=8). RNA was extracted and purified using the Direct-Zol RNA MiniPrep kit (Zymo research, Irvine, USA). cDNA was synthetized using the ProtoScript II Reverse Transcriptase kit (New England BioLabs, Évry-Courcouronnes, France). qRT-PCR was performed in quadruplets on a CFX384 Touch Real-Time PCR Detection System (Biorad, Marnes-la-Coquette, France) using iQ-SYBR Green supermix (Bio-Rad) kit with 0.25 μl cDNA in a 12 μl final volume in Hard-Shell Thin-Wall 384-Well Skirted PCR Plates (Bio-rad). Gene-specific primers were designed using Primer3 software to obtain a 100- to 150-bp product. Relative expression ratios were normalized to the level of actin and the 2^−ΔΔCt method was applied to evaluate differential expression level. Gene expression values differing of the mean by more than two standard deviations were considered as outliers and excluded from further calculations.
To shed light on the molecular mechanism involved in beneficial effects of chronic sodium bromide administration, we assessed the effects of a 2-week NaBr treatment on gene expression in Oprm1 null mice across five regions of the brain reward/social circuit: NAc, CPu, VP/Tu, MeA and VTA/SNc. Mice underwent a first session of social interaction after one week under treatment and a second 45 min before sacrifice for qRT-PCR experiment (data not shown). We focused primarily on genes coding for chloride transporters (Slc12a2 [NKCC1], Slc12a4, 5, 6, 7 [KCC1,2,3,4, respectively], ClCa1), GABAA receptor subunits (Gabra1, 2, 3, 4, 5, Gabrb1, 2) and glutamate receptors (Grm2, 4, 5) and subunits (Grin2a, 2b). In addition, we evaluated the expression of marker genes of neuronal expression and plasticity (Fos, Bdnf), social behavior (Oxt) and striatal projection neurons (SPNs; Crh, Drd1a, Drd2, Htr6, Pdyn, Penk).

In the case of `[Br-].[Na+]` [NaBr, sodium bromide], the “perseverative same arm returns” value with Oprm1^−/− mice [1] is recorded as “suppressed perseverative same arm returns from the dose of 70 mg/kg”; with Oprm1^−/− mice [1] (listed as bromide), “decreased the number of perseverative same arm returns in Oprm1 null mice to wild-type levels since the dose of 30 mg/kg”. Besides, in the assay on Oprm1^−/− mice [2], the “flicking latency (nociceptive threshold)” value was “ineffective”. Moreover, in the assay with Fmr1^−/− mice, the “number of buried marbles” value is “reduced the number of buried marbles in both Fmr1^+/+ and Fmr1^−/− mice”. Moreover, the marble burying entry in the assay on Shank3^Δex13-16−/− mice is “had no effect on reduced burying in Shank3^Δex13-16−/− mice”; with Shank3^Δex13-16−/− mice (listed as bromide), “decreased burying in both mutant and WT mice”. The ClCa1 transcription entry in assay [3] (CPu, mice of both genotypes, 2-week NaBr) is “increased ClCa1 transcription in mice of both genotypes”. In addition, the Oxt expression result in assay [3] (MeA and VTA/SNc, 2-week NaBr) was “induced Oxt expression in the MeA and VTA/SNc”. Besides, in assay [3] (Oprm1−/− mice, 2-week NaBr treatment, qRT-PCR), the “expression of chloride transporter genes” value is “increased the expression of all tested chloride transporters in Oprm1^−/− mice”. Further, in assay [3] (Oprm1−/− mice, CPu, 2-week NaBr), the “expression of Gabra3, Gabra4, Gabra5, Gabrg1 and Gabrb2” value was “consistently upregulated the expression of Gabra3, Gabra4, Gabra5, Gabrg1 and Gabrb2 in the CPu of mutant mice”. In addition, in assay [3] (Oprm1−/− mice, NAc (former) and VP/Tu (latter), 2-week NaBr), the “Oxt mRNA levels” value was “normalized by NaBr in the former and partially in the latter”. In addition, in assay [3] (Oprm1−/− mice, NAc and CPu (left high in VP/Tu and MeA), 2-week NaBr), the Gabra2 expression entry is “stimulated the expression of Gabra2”. Further, in assay [3] (Oprm1−/− mice, NAc, CPu and MeA, 2-week NaBr), the Slc12a5 expression result was “up-regulated the expression of Slc12a5 and Slc12a7”. Further, in assay [3] (Oprm1−/− mice, NAc, CPu, MeA and VP/Tu, 2-week NaBr), the Slc12a7 expression result is “up-regulated the expression of Slc12a5 and Slc12a7”. For the same compound, the Fos expression result in assay [3] (Oprm1−/− mice, NAc, VP/Tu, CPu, 2-week NaBr) is “down-regulated the expression of the early gene Fos in the NAc and VP/Tu and maintained it low in the CPu”. The “ClCa1 mRNA levels” value in assay [3] (Oprm1−/− mice, NAc, VP/Tu, MeA, VTA/SNc, 2-week NaBr) is “normalized by NaBr treatment in the NAc, increased in the VP/Tu and maintained high in the MeA and VTA/SNc”. Besides, the Slc12a2 expression entry in assay [3] (Oprm1−/− mice, decreased in all brain regions but the VP/Tu before treatment, 2-week NaBr) is “normalized under bromide treatment”. Besides, in assay [3] (all brain regions but the VTA/SNc of Oprm1−/− mice, and NAc of wild-type controls, 2-week NaBr), the Grm4 expression result is recorded as “upregulated the expression of Grm4”.
